Results: patent US20190307731A1, “ARYL HYDROCARBON RECEPTOR MODULATOR” (Ariagen, Inc., priority 2016, published 2019)
pEC50: −log10 of the molar value. Where two headings read alike, the source gives them in different places.

Molecular target: T1, native (Human Hepatoma Huh-7) AhR receptor (Homo sapiens, UniProt P35869)
T1 construct: expression of native (Human Hepatoma Huh-7) AhR receptor reporter gene cells; endogenous in cells; host or cells: Human hepatoma Huh-7 cells carrying a firefly luciferase reporter vector
T1 sequence (P35869 11-848): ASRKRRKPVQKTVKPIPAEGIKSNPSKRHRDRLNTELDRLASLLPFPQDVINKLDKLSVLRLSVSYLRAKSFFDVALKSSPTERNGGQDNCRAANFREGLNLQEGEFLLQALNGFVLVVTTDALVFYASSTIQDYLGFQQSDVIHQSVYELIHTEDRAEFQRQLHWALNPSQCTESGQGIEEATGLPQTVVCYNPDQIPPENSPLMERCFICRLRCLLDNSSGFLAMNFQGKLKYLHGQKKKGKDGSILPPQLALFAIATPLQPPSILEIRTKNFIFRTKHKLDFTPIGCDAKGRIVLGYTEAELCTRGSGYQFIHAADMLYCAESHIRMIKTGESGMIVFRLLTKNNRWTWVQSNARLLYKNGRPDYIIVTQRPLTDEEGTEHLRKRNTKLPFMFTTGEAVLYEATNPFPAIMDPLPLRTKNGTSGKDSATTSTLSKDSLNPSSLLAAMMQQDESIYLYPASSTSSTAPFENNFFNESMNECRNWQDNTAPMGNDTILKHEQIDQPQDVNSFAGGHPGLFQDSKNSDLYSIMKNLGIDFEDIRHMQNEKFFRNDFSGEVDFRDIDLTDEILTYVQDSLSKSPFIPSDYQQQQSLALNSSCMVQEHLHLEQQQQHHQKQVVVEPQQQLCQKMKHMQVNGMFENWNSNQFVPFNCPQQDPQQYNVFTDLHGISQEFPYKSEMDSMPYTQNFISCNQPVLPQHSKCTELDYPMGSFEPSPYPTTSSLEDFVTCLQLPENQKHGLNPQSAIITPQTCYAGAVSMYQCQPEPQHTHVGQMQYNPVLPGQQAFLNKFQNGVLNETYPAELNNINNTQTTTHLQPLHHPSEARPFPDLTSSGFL
Experiment: AhR agonism assay (luciferase reporter gene cells)
Assay type: cell-based
Protocol: Assay Materials (plasmids): expression of native (Human Hepatoma Huh-7) AhR receptor reporter gene cells, the reporter vector includes functional firefly luciferase gene linked to upstream receptor-specific genetic response elements (GRE).
The AhR agonism assay comprises the following three steps:
1. Cell implantation: a suspension of AhR receptor cells was prepared in cell recovery medium (CRM; FBS containing 10% activated carbon). Then, the prepared suspension (100 μl) was dispensed into wells of a white 96-well culture plate.
2. Right before the beginning of the experiment, Master Stocks were diluted to “2× concentration” treatment media with appropriate compound screening media (CSM: FBS containing 10% activated carbon). The test compounds were subjected to gradient dilution with CSM medium containing 0.2% DMSO, so that the final concentration of DMSO in each experimental well for each treatment group was 0.1%. […] The experimental plate was placed in an incubator at 37° C. for 24 h.
3. Fluorescence detection and analysis: after completion of the incubation, the treatment media were discarded and 100 μL/well of luciferase detection reagent was added. The Ave RLU (average relative fluorescence intensity) of each well and the coefficient of variation for each experimental group were determined. The activity of AhR receptor with various concentrations of the test compounds was quantitatively determined using a ratio of Ave RLU^Test Cmpd of various concentrations of the test compounds in the experimental group to Ave RLU^Vehicle of the blank control group, and fold activation and EC50 were determined.
For data processing method, refer to J. Biomol.

SMILES	pEC50 (AhR receptor reporter gene cells, 24 h incubation at 37° C., luciferase readout, read-out: EC50)	pEC50
CC(C)c1ncc(C(=O)c2c[nH]c3ccccc23)s1 [Compound 10]	4.00 to 5.00	–
COC(=O)c1nsc(C(=O)c2c[nH]c3ccc(F)cc23)n1 [Compound 13]	–	5.00 to 6.00
COC(=O)c1nsc(C(=O)c2c[nH]c3ccc(OC)cc23)n1 [Compound 14]	–	5.00 to 6.00
